The test has as its target T1, human renal renin (Homo sapiens, UniProt P00797).
T1 construct: human renal renin, free from acid proteolytic activity; from tissue
T1 sequence (P00797 67-406): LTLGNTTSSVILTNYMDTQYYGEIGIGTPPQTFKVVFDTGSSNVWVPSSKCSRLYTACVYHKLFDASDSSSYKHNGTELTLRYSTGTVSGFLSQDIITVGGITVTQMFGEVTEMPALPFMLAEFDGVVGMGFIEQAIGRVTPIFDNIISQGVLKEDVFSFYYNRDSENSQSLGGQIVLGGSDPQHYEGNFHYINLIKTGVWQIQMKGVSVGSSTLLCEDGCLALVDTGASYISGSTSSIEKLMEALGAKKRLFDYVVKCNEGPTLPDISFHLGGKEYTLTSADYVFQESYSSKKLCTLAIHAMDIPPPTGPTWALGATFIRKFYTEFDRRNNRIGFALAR
The test can be described thus: Inhibition of human renal renin in vitro (angiotensin I formed, radioimmunoassay). It counts as biochemical. As to conditions: human angiotensinogen substrate, 37 degrees C., pH 6.0. As to the method:
The novel compounds of the present invention are also useful for treating congestive heart failure. […] At the end of the incubation, the amount of angiotensin I formed is measured by radioimmunoassay and the molar concentration required to cause 50% inhibition, expressed as the IC50, is calculated.

The molecule `CC(C)C[C@H](O)[C@H](O)[C@H](CC1CCCCC1)NC(=O)[C@H](Cc1cnc[nH]1)N1C[C@H](Cc2ccccc2)N(CC(C)C)C1=O` [Example 118, (2S)-2-(Imidazol-4-ylmethyl)-2-(3-isobutyl-(4S)-phenylmethylimidazolidin-2-one-1-yl)acetic Acid Amide of (2)-Amino-1-cyclohexyl-3(R),4(S)-dihydroxy-6-methylheptane] gave a half-inhibitory concentration (IC50) of 150 nM. For `CCN1C[C@@H]([C@H](O)[C@H](CC2CCCCC2)NC(=O)[C@H](Cc2cnc[nH]2)N2C[C@H](Cc3ccccc3)N(CC(C)C)C2=O)OC1=O` [Example 119, (2S)-2-(Imidazol-4-ylmethyl)-2-(3-isobutyl-(4S)-phenylmethylimidazolidin-2-one-1-yl)acetic Acid Amide of (2'S,1'R,5S)-3-Ethyl-5-(1'-hydroxy-2'-amino-3'-cyclohexylpropyl)oxazolidin-2-one], it took 150 nM to reach half-maximal inhibition (IC50). As for `CC(C)C[C@H](O)[C@H](O)[C@H](CC1CCCCC1)NC(=O)[C@H](Cc1c[nH]cn1)N1C[C@H](Cc2ccccc2)NC1=O` [Example 120, (2S)-2-(Imidazol-4-ylmethyl)-2-((4S)-phenylmethylimidazolidin-2-one-1-yl)acetic Acid Amide of (2S)-Amino-1-cyclohexyl-3(R),4(S)-dihydroxy-6-methylheptane], the figure is 650 nM; as for `CC(C)C[C@H](O)[C@H](O)[C@H](CC1CCCCC1)NC(=O)[C@H](Cc1c[nH]cn1)N1CC[C@@H](Cc2ccccc2)C1=O` [Example 121, (2S)-2-(Imidazol-4-ylmethyl)-2-((3R)-phenylmethyl-2-oxopyrrolidin-1-yl)acetic Acid Amide of (2S)-Amino-1-cyclohexyl-3(R),4(S)-dihydroxy-6-methylheptane], 430 nM. As for `CC(C)C[C@H](O)[C@H](O)[C@H](CC1CCCCC1)NC(=O)[C@H](Cc1c[nH]cn1)N1C[C@H](Cc2ccccc2)CC1=O` [Example 122, (2S)-2-(Imidazol-4-ylmethyl)-2-((4R)-phenylmethyl-2-oxopyrrolidin-1-yl)acetic Acid Amide of (2S)-Amino-1-cyclohexyl-3(R),4(S)-dihydroxy-6-methylheptane], the figure is 580 nM. Turning to `CCCCNC(=O)[C@H](C[C@H](O)[C@H](CC1CCCCC1)NC(=O)C(Cc1cscn1)N1CCN(C(=O)N2CCOCC2)[C@H](Cc2ccccc2)C1=O)C(C)C` (stereo partly drawn) [Example 129, 3-(3-Thiazolyl)-2-(3R-benzyl-4-N-morpholin-1-yl-carbonyl-2-keto-piperazin-1-yl)-propionic acid Amide of Butyl 5(S)-amino-6-cyclohexyl-4(S)-hydroxy-2(R)-isopropylhexan-amide], the IC50 came to 1.3 nM.

Turning to `CCCCNC(=O)[C@H](C[C@H](O)[C@H](CC1CCCCC1)NC(=O)C(Cc1cscn1)N1CCN(S(=O)(=O)c2ccc(C)cc2)[C@H](Cc2ccccc2)C1=O)C(C)C` (stereo partly drawn) [Example 130, 3-(4-Thiazolyl)-2-(3R-benzyl-4-N-p-toluene-sulfonyl-2-keto-piperazin-1-yl)-propionic acid Amide of Butyl 5(S)-amino-6-cyclohexyl-4(S)-hydroxy-2(R)-isopropylhexan-amide], 0.73 nM corresponded to half-maximal inhibition (IC50). Molecule `Cc1ccc(S(=O)(=O)N2CCN(C(Cc3cscn3)C(=O)N[C@@H](CC3CCCCC3)[C@@H](O)[C@@H](O)CC(C)C)C(=O)[C@H]2Cc2ccccc2)cc1` (stereo partly drawn) [Example 131, 3-(3-Thiazolyl)-2-(3R-benzyl-4-N-p-toluene-sulfonyl-2-keto-piperazin-1-yl)-propionic acid Amide of 2(S)-amino-1-cyclohexyl-3(R),4(S)-dihydroxyl-6-methylheptane] came in with an IC50 of 3 nM. As for `CCCC[C@@H](C(=O)N[C@@H](CC1CCCCC1)[C@@H](O)[C@@H](O)CC(C)C)N1CCCN(C(=O)OC(C)(C)C)[C@H](Cc2ccccc2)C1=O` [Example 132, 2(S)-(3R-Benzyl-4N-tert-butyloxycarbonyl-2-keto-homopiperazin-1-yl)-hexanoic acid Amide of 2(S)-Amino-1-cyclohexyl-3(R),4(S)-dihydroxy-6-methylheptane], the figure is 340 nM. In turn, `Cc1ccc(S(=O)(=O)N2CCN(C(Cc3cscn3)C(=O)N[C@@H](CC3CCCCC3)[C@@H](O)[C@@H]3C[C@H](C)CO3)C(=O)[C@H]2Cc2ccccc2)cc1` (stereo partly drawn) [Example 140, 3-(S-Thiazolyl)-2-(3R-benzyl-4-N-p-toluene-sulfonyl-2-keto-piperazin-1-yl)-propionic acid Amide of 2(S)-(2(S)-Amino-3-cyclohexyl-1(R)-hydroxy)propyl-4(S)-methyltetrahydrofuran] came in with an IC50 of 3.4 nM. In turn, `CCCCNC(=O)[C@H](C[C@H](O)[C@H](CC1CCCCC1)NC(=O)C(Cc1cscn1)N1CCN(S(=O)(=O)N2CCN(C)CC2)[C@H](Cc2ccccc2)C1=O)C(C)C` (stereo partly drawn) [Example 141] displayed a 50% inhibitory concentration (IC50) of 1.5 nM. As for `CCN1CC(C(O)C(CC2CCCCC2)NC(=O)C(Cc2nccn2C(=O)OC(C)(C)C)N2CCN(S(=O)(=O)N3CCN(C)CC3)C(Cc3ccccc3)C2=O)OC1=O` [Example 142, 3-(3N-tert-butyloxycarbonyl-2-imidazolyl)-2-(3R-benzyl-4-N-(N-methylpiperazyl)-sulfonyl-2-keto-piperazin-1-yl)-propoionic acid Amide of (2'S,1'R,5S)-3-Ethyl-5-(1'-hydroxy-2'-amino-3'-cyclohexylpropyl)oxazolidin-2-one], the figure is 5 nM; as for `CCN1C[C@@H]([C@H](O)[C@H](CC2CCCCC2)NC(=O)C(Cc2ncc[nH]2)N2CCN(S(=O)(=O)N3CCN(C)CC3)[C@H](Cc3ccccc3)C2=O)OC1=O` (stereo partly drawn) [Example 143, 3-(2-imidazolyl)-2-(3R-benzyl-4-N-(N-methylpiperazyl)-sulfonyl-2-keto-piperazin-1-yl)-propionic acid Amide of (2'S,1'R,5S)-3-Ethyl-5-(1'-hydroxy-2'-amino-3'-cyclohexylpropyl)oxazolidin-2-one], 1.7 nM; as for `CC(C)C[C@H](O)[C@H](O)[C@H](CC1CCCCC1)NC(=O)C(Cc1nccn1C(=O)OC(C)(C)C)N1CCN(S(=O)(=O)N2CCN(C)CC2)[C@H](Cc2ccccc2)C1=O` (stereo partly drawn) [Example 144, 3-(3N-tert-butyloxycarbonyl-2-imidazolyl)-2-(3R-benzyl-4N-(N-methylpiperazyl)-sulfonyl-2-keto-piperazin-1-yl)-propionic acid Amide of 2(S)-Amino-1-cyclohexyl-3(R),4(S)-dihydroxy-6-methylheptane], 6.6 nM. As for `CC(C)C[C@H](O)[C@H](O)[C@H](CC1CCCCC1)NC(=O)C(Cc1ncc[nH]1)N1CCN(S(=O)(=O)N2CCN(C)CC2)[C@H](Cc2ccccc2)C1=O` (stereo partly drawn) [Example 145], the figure is 1.7 nM. The molecule `C[C@@H]1CO[C@H]([C@H](O)[C@H](CC2CCCCC2)NC(=O)C(Cc2nccn2C(=O)OC(C)(C)C)N2CCN(S(=O)(=O)N3CCN(C)CC3)[C@H](Cc3ccccc3)C2=O)C1` (stereo partly drawn) [Example 146, 3-(3N-tert-butyloxycarbonyl-2-imidazolyl)-2-(3R-benzyl-4N-(N-methylpiperazyl)-sulfonyl-2-keto-piperazin-1-yl)-propionic acid Amide of 2(s)-(2(s)-Amino-3-cyclohexyl-1(R) hydroxy)propyl-4(S)-methyltetrahydrofuran] yielded a half-inhibitory concentration (IC50) of 1.6 nM. As for `CC(C)C[C@H](O)[C@H](O)[C@H](CC1CCCCC1)NC(=O)[C@H](Cc1cscn1)N1CCC[C@@](Cc2ccccc2)(NS(=O)(=O)N2CCN(C)CC2)C1=O` [Example 151, (2S)-(3S)-((N-methylpiperazinsulfonyl)-amino-3-phenylmethyl-2-oxo-1-piperidinyl)-3-(4-thiazolyl) propionic acid amide of (2S.3R,4S)-2-amino-1-cyclohexyl-3,4-dihydroxy-6-methylheptane], the figure is 0.32 nM; as for `Cc1ccc(S(=O)(=O)N[C@]2(Cc3ccccc3)CCCN([C@@H](Cc3c[nH]cn3)C(=O)N[C@@H](CC3CCCCC3)[C@@H](O)[C@@H](O)CC(C)C)C2=O)cc1` [Example 156], 1.4 nM.

(Values after patent publication US5164388A, “Heterocyclic peptide renin inhibitors” (Abbott Laboratories, priority 1991, dated 1992).)
